Measurements from publication PMC8351955, “Targeting Mycobacterium tuberculosis response to environmental cues for the development of effective antitubercular drugs” (PLoS Biology, 2021).
“And” between values parts separate entries of the source, which are not always exact repeats. Identical values can stand only once. Like-named read-outs stand apart in the source and are kept apart here.

Experiments:
[1] = system: Mtb growth in J774 macrophage-like cells; assay: J774 infection in 96-well plates, mKO fluorescence 6 days post-infection; type: cell-based, Mycobacterium tuberculosis; details: for Inhibition of Mtb growth in J774 cells: 10 μM, 6 days post-infection; for % Growth: Fig. 2D, DMSO = 100
Protocol: For J774 infection in 96-well plates, 1.8 × 10^5 J774 cells were seeded per well in 180 μl of J774 infection media 1 day prior to infection. On the day of the assay, log-phase Mtb constitutively expressing mKO were pelleted and resuspended in 1 ml basal uptake buffer, passed 6× through a tuberculin syringe with a 25 G × 5/8″ needle, then resuspended in J774 infection media to a final OD600 = 0.2. Media was removed from 96-well plate containing the J774 cells, with 140 μl of fresh J774 infection media added back to each well. A volume of 40 μl of the Mtb suspension at OD600 = 0.2 was added to each well, followed by addition of appropriate concentration of compound or DMSO in a 20-μl final volume in J774 infection media (compound final concentration 10 μM, rifampicin final concentration 5 μM, DMSO final concentration 0.1%/well). Bacterial mKO fluorescence was read immediately after infection using a Biotek Synergy Neo2 microplate reader (bottom read monochromator, excitation 543/10 nm, emission 565/10 nm), and again 6 days post-infection. Plates were kept in humidified ziplock bags in a 37°C, 5% CO2 incubator. mKO fluorescence in DMSO-treated control samples were defined as 100% growth, and fluorescence observed in treatment conditions calculated as a percentage from that set value.

[2] = system: WT Mtb (Erdman) in primary murine BMDMs; assay: Primary murine bone marrow-derived macrophage infection, CFU; type: cell-based, Mycobacterium tuberculosis; details: for Effect on bacterial load / Mtb growth in primary murine BMDMs: 10 μM, 8-day infection time course, vs DMSO; for CFU/ml: Fig. 2E, 10 µM
Protocol: C57BL/6J wild-type mice (Jackson Laboratories) were used for extraction of BMDMs. Cells were harvested and expanded in DMEM containing 10% FBS, 15% L-cell conditioned media, 2 mM L-glutamine, 1 mM sodium pyruvate, and penicillin/streptomycin as needed in a 37°C incubator in a 5% CO2 atmosphere. […] Macrophages were lysed with water containing 0.01% sodium dodecyl sulfate and a dilution series of the samples plated on 7H10 agar for CFU determination.

[3] = system: CDC1551(rv2390c′::GFP) reporter Mtb strain; details: for Normalized % induction: Fig. 2C, DMSO = 100; for Ability to increase rv2390c′::GFP reporter signal in high [Cl−]: pH 7
[4] = system: Mtb; assay: Mtb growth assay in cholesterol medium (OD600); details: for Inhibition of Mtb growth in cholesterol media: 10 μM, OD600 over 12 days; for OD600: Fig. 2G
Excerpt: (§1) Bacterial growth was tracked by measuring OD600 every 3 days for 12 days. […] Bacterial growth was tracked by measurement of OD600 every 3 days over 12 days.

[5] = system: Mtb CDC1551; assay: Intrabacterial drug accumulation assay (LC-MS); details: 24-hour exposure, 7H9 pH 7 ± 250 mM NaCl
[6] = system: Mtb; assay: Mtb growth assay in standard 7H9 medium (OD600); details: Fig. 2F
Excerpt: as §1

[7] = system: J774 cells; assay: Intracellular drug accumulation assay in J774 cells (LC-MS); details: for Intracellular accumulation in J774 cells: 24 hours; for nmol/106 cells: Fig. 3F
[8] = system: Mtb-infected J774 cells; details: for Accumulation in Mtb-infected J774 cells: 10 μM, 24 hours, 5 days post-infection; for nmol/106 cells: Fig. 3F
[9] = system: CDC1551(rv2390c′::GFP) reporter Mtb strain, response to high [Cl−]; assay: microbe, parasite or virus in culture; type: cell-based, Mycobacterium tuberculosis; details: primary screen, 10 µM
[10] = system: Mtb growth in cholesterol media; design: method as in PubChem AID 1259343; details: ref PubChem AID 1259343; cited from earlier work
[11] = system: Mtb; design: method as in PMID 26574016, PMID 27227164; details: mice do not form caseous necrotic lesions; cited from earlier work
[12] = system: Mtb; design: method as in PMID 26574016, PMID 27227164; details: subset of mice failing to respond; cited from earlier work

| Structure (SMILES) | Inhibition of Mtb growth in J774 cells [1] | % Growth ([1]; average of 4 replicates) [%] | % Growth ([1]; individual replicates) | Normalized % induction ([3]; average of 3 replicates) [%] | Normalized % induction ([3]; individual replicates) | Ability to increase rv2390c′::GFP reporter signal in high [Cl−] [3] | Inhibition of Mtb growth in cholesterol media [4] | OD600 ([4]; day 3, average) | OD600 ([4]; day 3, individual replicates) | OD600 ([4]; day 6, average) | OD600 ([4]; day 6, individual replicates) | OD600 ([4]; day 9, average) | OD600 ([4]; day 9, individual replicates) | OD600 ([4]; day 12, average) | OD600 ([4]; day 12, individual replicates) | OD600 ([6]; day 3, average) | OD600 ([6]; day 3, individual replicates) | OD600 ([6]; day 6, average) | OD600 ([6]; day 6, individual replicates) | OD600 ([6]; day 9, average) | further results |
| --- | --- | --- | --- | --- | --- | --- | --- | --- | --- | --- | --- | --- | --- | --- | --- | --- | --- | --- | --- | --- | --- |
| COc1ncc(CN2CCN(c3nc4ccccc4o3)CC2)cn1 [JSF-4271, 2-(4-((2-methoxypyrimidin-5-yl)methyl)piperazin-1-yl)benzo[d]oxazole] | loss of the ability to inhibit Mtb growth | 107.949 | 101.522% and 116.46% and 111.935% and 101.878% | 98.3426 | 93.208% and 98.8641% and 102.956% | lost the ability | no longer inhibited Mtb growth | 0.1 | 0.1 | 0.28 | 0.3 (2×) and 0.24 | 0.4467 | 0.46 (2×) and 0.42 | 0.52 | 0.52 and 0.5 and 0.54 | 0.2 | 0.2 and 0.22 and 0.18 | 0.4067 | 0.42 (2×) and 0.38 | 0.5267 | Effect on bacterial load / Mtb growth in primary murine BMDMs [2]: loss of the ability to inhibit Mtb growth; CFU/ml ([2]; day 2, average): 489333 CFU/ml; CFU/ml ([2]; day 2, individual replicates): 446000 CFU/ml and 482000 CFU/ml and 540000 CFU/ml; CFU/ml ([2]; day 4, average): 960000 CFU/ml; CFU/ml ([2]; day 4, individual replicates): 1040000 CFU/ml and 1100000 CFU/ml and 740000 CFU/ml; CFU/ml ([2]; day 6, average): 2286667 CFU/ml; CFU/ml ([2]; day 6, individual replicates): 1960000 CFU/ml and 2060000 CFU/ml and 2840000 CFU/ml; CFU/ml ([2]; day 8, average): 6800000 CFU/ml; CFU/ml ([2]; day 8, individual replicates): 6000000 CFU/ml and 5400000 CFU/ml and 9000000 CFU/ml; Intrabacterial accumulation in Mtb [5]: decreased accumulation; OD600 ([6]; day 9, individual replicates): 0.54 (2×) and 0.5; OD600 ([6]; day 12, average): 0.6733; OD600 ([6]; day 12, individual replicates): 0.68 (2×) and 0.66; Intracellular accumulation in J774 cells [7]: minimal accumulation; Accumulation in Mtb-infected J774 cells [8]: minimal accumulation |
| c1ccc2oc(N3CCN(Cc4cncnc4)CC3)nc2c1 [JSF-4297, 2-(4-(pyrimidin-5-ylmethyl)piperazin-1-yl)benzo[d]oxazole] | loss of the ability to inhibit Mtb growth | 108.514 | 102.242% and 116.384% and 110.602% and 104.828% | 100.379 | 88.9158% and 107.146% and 105.074% | lost the ability | no longer inhibited Mtb growth | 0.09333 | 0.1 (2×) and 0.08 | 0.3133 | 0.32 (2×) and 0.3 | 0.4533 | 0.46 (2×) and 0.44 | 0.5 | 0.48 and 0.5 and 0.52 | 0.1933 | 0.18 (2×) and 0.22 | 0.4 | 0.4 and 0.42 and 0.38 | 0.5467 | Effect on bacterial load / Mtb growth in primary murine BMDMs [2]: loss of the ability to inhibit Mtb growth; OD600 ([6]; day 9, individual replicates): 0.56 (2×) and 0.52; OD600 ([6]; day 12, average): 0.7; OD600 ([6]; day 12, individual replicates): 0.7 and 0.72 and 0.68; Intracellular accumulation in J774 cells [7]: no detectable accumulation; nmol/106 cells ([7]; Experiment 1 - J774, average): 0 nmol/106 cells; nmol/106 cells ([7]; Experiment 1 - J774, individual replicates): 0 nmol/106 cells; nmol/106 cells ([7]; Experiment 2 - J774, average): 0 nmol/106 cells; nmol/106 cells ([7]; Experiment 2 - J774, individual replicates): 0 nmol/106 cells; nmol/106 cells ([7]; Experiment 3 - J774, average): 0 nmol/106 cells; nmol/106 cells ([7]; Experiment 3 - J774, individual replicates): 0 nmol/106 cells; nmol/106 cells ([8]; Experiment 1 - Mtb-infected J774, average): 0.006771 nmol/106 cells; nmol/106 cells ([8]; Experiment 1 - Mtb-infected J774, individual replicates): 0.007341 nmol/106 cells and 0.006486 nmol/106 cells (2×); nmol/106 cells ([8]; Experiment 2 - Mtb-infected J774, average): 0.007288 nmol/106 cells; nmol/106 cells ([8]; Experiment 3 - Mtb-infected J774, average): 0.039 nmol/106 cells; nmol/106 cells ([8]; Experiment 3 - Mtb-infected J774, individual replicates): 0.03001 nmol/106 cells and 0.048 nmol/106 cells |
| CCSc1ccc(CN2CCN(c3nc4ccccc4o3)CC2)cc1 [JSF-4300, 2-(4-(4-(ethylthio)benzyl)piperazin-1-yl)benzo[d]oxazole] | continuing to demonstrate the phenotypes seen with the parental C6 compound | 60.6248 | 59.61% and 62.908% and 58.5309% and 61.4502% | 125.329 | 120.3% and 121.44% and 134.248% | continuing to demonstrate the phenotypes seen with the parental C6 compound | continuing to demonstrate the phenotypes seen with the parental C6 compound | 0.06 | 0.06 | 0.09333 | 0.1 (2×) and 0.08 | 0.1333 | 0.14 (2×) and 0.12 | 0.16 | 0.16 and 0.14 and 0.18 | 0.1733 | 0.18 (2×) and 0.16 | 0.3867 | 0.38 (2×) and 0.4 | 0.4933 | CFU/ml ([2]; day 2, average): 472667 CFU/ml; CFU/ml ([2]; day 2, individual replicates): 482000 CFU/ml and 478000 CFU/ml and 458000 CFU/ml; CFU/ml ([2]; day 4, average): 660000 CFU/ml; CFU/ml ([2]; day 4, individual replicates): 620000 CFU/ml and 660000 CFU/ml and 700000 CFU/ml; CFU/ml ([2]; day 6, average): 806667 CFU/ml; CFU/ml ([2]; day 6, individual replicates): 740000 CFU/ml (2×) and 940000 CFU/ml; CFU/ml ([2]; day 8, average): 966667 CFU/ml; CFU/ml ([2]; day 8, individual replicates): 1080000 CFU/ml and 800000 CFU/ml and 1020000 CFU/ml; Intrabacterial accumulation in Mtb [5]: robust accumulation; OD600 ([6]; day 9, individual replicates): 0.48 (2×) and 0.52; OD600 ([6]; day 12, average): 0.6467; OD600 ([6]; day 12, individual replicates): 0.64 (2×) and 0.66; Intracellular accumulation in J774 cells [7]: robust accumulation; Accumulation in Mtb-infected J774 cells [8]: robust accumulation |
| c1ccc2oc(N3CCN(Cc4ccc(C5CCCO5)s4)CC3)nc2c1 (stereo not drawn) [PubChem SID: 340463409, reference compound] | – | – | – | – | – | – | – | – | – | – | – | – | – | – | – | – | – | – | – | – | Dysregulation of Mtb Cl− response in original rv2390c′::GFP screen [9]: did not demonstrate dysregulation; Call in screen for inhibition of Mtb growth in cholesterol media [10]: having antitubercular activity in cholesterol media |
| COc1nc2ccc(Br)cc2cc1[C@@H](c1ccccc1)[C@@](O)(CCN(C)C)c1cccc2ccccc12 [bedaquiline] | – | – | – | – | – | – | – | – | – | – | – | – | – | – | – | – | – | – | – | – | Efficacy across animals in BALB/c mice [11]: uniform efficacy across animals; Response in C3HeB/FeJ mice [12]: heterogeneous response |
| NC(=O)c1cnccn1 [pyrazinamide] | – | – | – | – | – | – | – | – | – | – | – | – | – | – | – | – | – | – | – | – | Efficacy across animals in BALB/c mice [11]: uniform efficacy across animals; Response in C3HeB/FeJ mice [12]: heterogeneous response |
